From publication PMC11969024, “Development of chemokine network inhibitors using combinatorial saturation mutagenesis” (Communications Biology, 2025)

System: THP1 cells, activated T-cells (ATC), J:CXCR1 cells
Experiment: Meta-analysis of individual chemokine-induced cell migration experiments
Type: cell-based, human
Details: seven CC and three CXC chemokines, Dunnett's test
Method: Cell migration assays were performed as follows. THP1 cell migration. Briefly, 300000 cells/well were added to the top chamber of a 5-µm 96-well Transwell insert (3387, Corning) in 50 µL of cell migration media (RPMI-1640 (R0883, Sigma), 0.5% FBS (F9665, Sigma), 4mM L-Glutamine (G7513, Sigma), 0.05% DMSO (D4540, Sigma)). The bottom chamber contained 150 µL of migration media with chemokine and peptide. Cells were migrated at 37 °C in 5% CO2 for 4 h. J:CXCR1 cell migration was performed exactly as above using a 3-µm Transwell insert (3385, Corning). Activated T-cell migration. Briefly, 100000 cells/well were added to the top chamber of a 3-µm Transwell insert (3385, Corning) in 50 µL of migration media (HBSS (14025-092, Life Technologies), 0.1% protease free bovine serum albumin (A7030, Sigma), 0.05% DMSO (D4540, Sigma)). The bottom chamber contained 150 µL of migration media with chemokine and peptide. Cells were migrated at 37 °C in 5% CO2 for 2 h. Buffy coat migration. Briefly, a mixture of all cell types at 100000 cells/well were added to the top chamber of a 3-µm Transwell insert (3385, Corning) in 50 µL of migration media (HBSS (14025-092, Life Technologies), 0.1% protease free bovine serum albumin (A7030, Sigma), 0.05% DMSO (D4540, Sigma). The bottom chamber contained 150 µL of migration media with chemokine and peptide. Cells were migrated at 37 °C in 5% CO2 for 2 h. Analysis of cell migration. The migration plate was shaken at 850 RPM for 10 min, and media from bottom plate transferred to a round-bottomed 96 well plate (353910, Falcon). Cells were counted by flow cytometry as described above. Experiments were performed at chemokine EC80 for individual chemotaxis experiments and at EC50 for the pooled chemokine experiments, with three technical replicates, and at least three biological replicates. Statistical significance of differences between control and test groups was evaluated using a two-sided Dunnett’s test with multiple testing correction. Chemokine EC80 or chemokine pool EC50 values were as determined by performing a chemokine dose-response against the cell type and fitting the dose-response curve with a 3-parameter log-logistic model, where the maximal response is fixed at 100% response. […] IC50 was determined by performing inhibitor dose-response experiments and fitting the dose-response curve with a 3-parameter log-logistic model, fixing the bottom of the curve to zero. […] For summary statistics and comparisons, pEC50, pEC80 and pIC50 were calculated as the negative log10 of EC50, EC80 or IC50 expressed in moles/litre.
Sample size and estimated effect sizes were not formally calculated for cell-based or phage-display experiments and no randomization was performed. […]

Row | Sequence | migrated cell count over all chemokines studied, compared to HD2 (meta-analysis)
1 | EEDDWTAYAPLTCYFT [HD2Y5W, HD2 point mutant] | significant improvement over HD2
2 | EEDDYWAYAPLTCYFT [HD2T6W, HD2 point mutant] | significant improvement over HD2
